This assay has as its target ROCK2 (Homo sapiens (Human), UniProt O75116). The assay can be described thus: ROCK assay (Caliper LABCHIP peptide phosphorylation, 5 μM ATP). The assay is classed as biochemical. The following applies: 1.5 μM peptide substrate.
ROCK2, sequence (O75116 whole entry, species assumed): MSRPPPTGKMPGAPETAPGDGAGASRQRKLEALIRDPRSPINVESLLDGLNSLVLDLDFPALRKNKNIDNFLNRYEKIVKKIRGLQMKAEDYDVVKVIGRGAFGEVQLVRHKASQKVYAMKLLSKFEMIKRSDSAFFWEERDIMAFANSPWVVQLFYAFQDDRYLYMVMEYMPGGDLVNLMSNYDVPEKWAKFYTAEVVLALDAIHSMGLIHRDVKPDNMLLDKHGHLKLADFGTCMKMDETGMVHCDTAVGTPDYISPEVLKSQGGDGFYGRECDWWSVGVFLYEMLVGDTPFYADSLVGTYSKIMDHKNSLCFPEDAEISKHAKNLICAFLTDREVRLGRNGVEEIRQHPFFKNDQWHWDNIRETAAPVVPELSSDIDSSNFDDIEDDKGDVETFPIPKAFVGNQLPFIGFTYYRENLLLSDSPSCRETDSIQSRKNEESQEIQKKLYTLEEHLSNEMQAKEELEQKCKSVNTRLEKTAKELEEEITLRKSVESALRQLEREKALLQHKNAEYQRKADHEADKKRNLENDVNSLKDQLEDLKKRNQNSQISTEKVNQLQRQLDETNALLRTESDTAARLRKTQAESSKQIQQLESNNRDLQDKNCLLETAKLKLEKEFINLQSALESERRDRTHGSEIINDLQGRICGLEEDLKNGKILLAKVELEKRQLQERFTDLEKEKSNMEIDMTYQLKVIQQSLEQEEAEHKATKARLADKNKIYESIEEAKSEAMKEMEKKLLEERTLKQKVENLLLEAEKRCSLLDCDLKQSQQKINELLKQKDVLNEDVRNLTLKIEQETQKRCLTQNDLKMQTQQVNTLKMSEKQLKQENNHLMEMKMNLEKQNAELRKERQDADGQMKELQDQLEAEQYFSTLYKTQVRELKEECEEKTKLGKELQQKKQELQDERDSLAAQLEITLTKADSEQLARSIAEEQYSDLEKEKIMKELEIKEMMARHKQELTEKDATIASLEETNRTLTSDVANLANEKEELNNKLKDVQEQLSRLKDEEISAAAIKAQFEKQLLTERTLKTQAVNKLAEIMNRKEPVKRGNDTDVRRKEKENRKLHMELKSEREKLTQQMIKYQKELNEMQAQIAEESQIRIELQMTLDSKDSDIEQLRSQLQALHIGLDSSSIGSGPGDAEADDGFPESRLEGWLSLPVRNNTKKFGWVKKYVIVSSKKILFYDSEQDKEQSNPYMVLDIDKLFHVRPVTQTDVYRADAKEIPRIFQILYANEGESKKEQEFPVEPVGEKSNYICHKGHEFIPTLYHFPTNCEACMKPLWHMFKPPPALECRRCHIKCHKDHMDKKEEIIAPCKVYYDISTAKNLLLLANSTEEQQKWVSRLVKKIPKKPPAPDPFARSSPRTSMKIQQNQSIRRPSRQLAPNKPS
Usually IC50 stands for the concentration at which inhibition is half-maximal. A lower IC50 goes with higher potency. For `COC(=O)c1cccc(C(=O)Nc2ccc3c(c2)OCc2cnccc2-3)c1` [Example I-38, methyl 3-(5H-chromeno[3,4-c]pyridin-8-ylcarbamoyl)benzoate], the IC50 amounted to 847 nM. That is a sub-micromolar value. Under `O=C(Cc1ccc(Cl)cc1Cl)Nc1ccc2c(c1)OCc1cnccc1-2` [Example I-14, N-(5H-chromeno [3,4-c]pyridin-8-yl)-2-(2,4-dichlorophenyl) acetamide] stands 54.4 nM. Under `O=C(Nc1ccc2c(c1)OCc1cnccc1-2)Nc1ccccc1Cl` [II-2, 1-(2-chlorophenyl)-3-(5H-chromeno[3,4-c]pyridin-8-yl) urea] stands 557 nM. Regarding `O=C(Cc1cc(F)cc(F)c1)Nc1ccc2c(c1)OCc1cnccc1-2` [Example I-17, N-(5H-chromeno[3,4-c]pyridin-8-yl)-2-(3,5-difluorophenyl) acetamide], half-maximal inhibition (IC50) was put at 37.8 nM. For `O=C(Cc1c(Cl)cccc1Cl)Nc1ccc2c(c1)OCc1cnccc1-2` [Example I-21, N-(5H-chromeno[3,4-c]pyridin-8-yl)-2-(2,6-dichlorophenyl) acetamide], the IC50 is 161 nM. Under `O=C(NCCc1cccc(Cl)c1)Nc1ccc2c(c1)OCc1cnccc1-2` [II-10, 1-(3-chlorophenethyl)-3-(5H-chromeno[3,4-c]pyridin-8-yl) urea] stands 248 nM; under `CSc1ccc(CC(=O)Nc2ccc3c(c2)OCc2cnccc2-3)cc1` [Example I-25, N-(5H-chromeno[3,4-c]pyridin-8-yl)-2-(4-(methylthio)phenyl) acetamide], 295 nM.

Compound `CC(=O)Nc1cccc(C(=O)Nc2ccc3c(c2)OCc2cnccc2-3)c1` [Example I-35, 3-acetamido-N-(5H-chromeno[3,4-c]pyridin-8-yl) benzamide] yielded an IC50 of 434 nM. The compound `COc1cccc(C(=O)Nc2ccc3c(c2)OCc2cnccc2-3)c1` [Example I-66, N-(5H-chromeno[3,4-c]pyridin-8-yl)-3-methoxybenzamide] registered an IC50 of 2590 nM. Compared with the last compound, the IC50 is about 6-fold higher.

In turn, `CS(=O)(=O)c1ccc(C(=O)Nc2ccc3c(c2)OCc2cnccc2-3)cc1` [Example I-29, N-(5H-chromeno[3,4-c]pyridin-8-yl)-4-(methylsulfonyl) benzamide] gave an IC50 of 2050 nM. With `O=C(Nc1ccc2c(c1)OCc1cnccc1-2)c1cnccn1` [Example I-30, N-(5H-chromeno[3,4-c]pyridin-8-yl) pyrazine-2-carboxamide] the figure was 2940 nM; with `O=C(Cc1cccc(C(F)(F)F)c1)Nc1ccc2c(c1)OCc1cnccc1-2` [Example I-22, N-(5H-chromeno[3,4-c]pyridin-8-yl)-2-(3-(trifluoromethyl)phenyl)acetamide], 159 nM; with `O=C(NCCc1ccc2c(c1)OCO2)Nc1ccc2c(c1)OCc1cnccc1-2` [II-12, 1-(2-(benzo[d][1,3]dioxol-5-yl)ethyl)-3-(5H-chromeno[3,4-c]pyridin-8-yl)urea], 685 nM. `O=C(Nc1ccc2c(c1)OCc1cnccc1-2)c1cscn1` [Example I-44, N-(5H-chromeno[3,4-c]pyridin-8-yl) thiazole-4-carboxamide] registered an IC50 of 1450 nM. Under `O=C(Nc1cccnc1)Nc1ccc2c(c1)OCc1cnccc1-2` [II-5, 1-(5H-chromeno[3,4-c]pyridin-8-yl)-3-(pyridin-3-yl)urea] stands 1420 nM; under `O=C(Cc1nnn[nH]1)Nc1ccc2c(c1)OCc1cnccc1-2` [Example I-59, N-(5H-chromeno[3,4-c]pyridin-8-yl)-2-(1H-tetrazol-5-yl) acetamide], 3820 nM; under `O=C(Cc1cc(F)cc(C(F)(F)F)c1)Nc1ccc2c(c1)OCc1cnccc1-2` [Example I-23, N-(5H-chromeno[3,4-c]pyridin-8-yl)-2-(3-fluoro-5-(trifluoromethyl)phenyl)acetamide], 368 nM. `O=C(Nc1ccc2c(c1)OCc1cnccc1-2)c1cccc(Cl)c1` [Example I-53, 3-chloro-N-(5H-chromeno[3,4-c]pyridin-8-yl)benzamide] gave an IC50 of 4500 nM. Under `O=C(Nc1ccc2c(c1)OCc1cnccc1-2)c1ccccc1-c1ccccc1` [Example I-65, N-(5H-chromeno[3,4-c]pyridin-8-yl) biphenyl-2-carboxamide] stands 1220 nM. `CN(C)c1ccc(C(=O)Nc2ccc3c(c2)OCc2cnccc2-3)cc1` [Example I-63, N-(5H-chromeno[3,4-c]pyridin-8-yl)-4-(dimethylamino) benzamide] yielded an IC50 of 2370 nM. As for `O=C(Cc1cccc(F)c1)Nc1ccc2c(c1)[nH]c1cnccc12` [Example IV-3, 2-(3-Fluorophenyl)-N-(9H-pyrido[3,4-b]indol-7-yl)acetamide], the IC50 worked out at 21 nM. With `CC(C(=O)Nc1ccc2c(c1)OCc1cnccc1-2)c1ccccc1Cl` (stereo not drawn) [Example I-5, 2-(2-chlorophenyl)-N-(5H-chromeno [3,4-c]pyridin-8-yl) propanamide] the figure was 33.5 nM; with `N[C@H](CCc1ccccc1)C(=O)Nc1ccc2c(c1)OCc1cnccc1-2` [Example I-4, (R)-2-amino-N-(5H-chromeno[3,4-c]pyridin-8-yl)-4-phenylbutanamide], 128 nM. With `O=C(Nc1ccc2c(c1)OCc1cnccc1-2)c1nc2ccccc2[nH]1` [Example I-73, N-(5H-chromeno[3,4-c]pyridin-8-yl)-1H-benzo[d]imidazole-2-carboxamide] the figure was 619 nM; with `O=C(CC(c1ccccc1)c1ccccc1)Nc1ccc2c(c1)OCc1cnccc1-2` [Example I-67, N-(5H-chromeno[3,4-c]pyridin-8-yl)-3,3-diphenylpropanamide], 471 nM. `O=C(Cc1ccc(Cl)c(Cl)c1)Nc1ccc2c(c1)OCc1cnccc1-2` [Example I-68, N-(5H-chromeno[3,4-c]pyridin-8-yl)-2-(3,4-dichlorophenyl) acetamide]: the IC50 was 362 nM. Under `O=C(Cc1ccncc1)Nc1ccc2c(c1)OCc1cnccc1-2` [Example I-34, N-(5H-chromeno[3,4-c]pyridin-8-yl)-2-(pyridin-4-yl) acetamide] stands 207 nM; under `O=C(Cc1ccc(F)cc1)Nc1ccc2c(c1)OCc1cnccc1-2` [Example I-26, N-(5H-chromeno[3,4-c]pyridin-8-yl)-2-(4-fluorophenyl) acetamide], 38.7 nM. Under `O=C(CCc1ccccc1)Nc1ccc2c(c1)OCc1cnccc1-2` [Example I-60, N-(5H-chromeno[3,4-c]pyridin-8-yl)-3-phenylpropanamide] stands 40.4 nM. Under `Cc1cccc(CC(=O)Nc2ccc3c(c2)OCc2cnccc2-3)c1` [Example I-12, N-(5H-chromeno[3,4-c]pyridin-8-yl)-2-m-tolylacetamide] stands 74.5 nM; under `O=C(CCc1ccc(Cl)cc1)Nc1ccc2c(c1)OCc1cnccc1-2` [Example I-37, 3-(4-chlorophenyl)-N-(5H-chromeno [3,4-c]pyridin-8-yl) propanamide], 323 nM; under `O=C(NCCc1ccc(Cl)cc1)Nc1ccc2c(c1)OCc1cnccc1-2` [II-9, 1-(4-chlorophenethyl)-3-(5H-chromeno[3,4-c]pyridin-8-yl) urea], 971 nM. Turning to `O=C(CCOc1ccccc1)Nc1ccc2c(c1)OCc1cnccc1-2` [Example I-2, N-(5H-chromeno[3,4-c]pyridin-8-yl)-3-phenoxypropanamide], the IC50 was determined as 82.2 nM.

These data come from patent US9663529B2, “Tricyclic pyrido-carboxamide derivatives as rock inhibitors” (BRISTOL-MYERS SQUIBB COMPANY, priority 2013, dated 2017).
